According to US20250109127A1, “METHODS OF USE OF PHENOXYPROPYLAMINE COMPOUNDS TO TREAT DEPRESSION” (Minerva Neurosciences, Inc., priority 2013, published 2025):
Values joined by “and” are separate entries in the source; they are usually repeats but may differ in a detail not shown here. Equal values may be shown once. Where a name gives a salt, the structure may show the parent alone.

Test system: 5-HT release in the rat prefrontal cortex
Assay: Microdialysis: 5-HT release in prefrontal cortex after I.P. administration
Type: in vivo
Details: for 5-HT release (% of basal levels) measured in dialysates: individual animals, hydrochloride, 3 mg/kg; for 5-HT release (% of basal levels) measured in dialysates, MEAN / 5-HT (% of respective basal) MEAN: n = 8; for 5-HT (% of respective basal) MEAN: SON-117 group 0.1 mg/kg I.P.
Protocol: The aim of the study was to evaluate, using microdialysis, the effects of an intraperitoneal (I.P.) administration in rats of three different doses of SON-117 on dopamine and its metabolites, serotonin and its metabolite (5-HIAA), and norepinephrine levels in prefrontal cortex.
Thirty-two adult male Wistar rats were used for the whole study (4 groups of eight animals planned for the study, Table 1).
Surgery was performed on rats weighing about 300 g at the beginning of the experiments. Rats were anaesthetized with Ketamine (50 mg/kg) & Xylazine (15 mg/kg) by intramuscular administration. The animals were placed in a stereotaxic apparatus in the flat-skull position at a constant setting of −3.3 mm between ear bars and the incisor bar. The animals were treated with a local anesthesic (xylocaine 1%, Astra Zeneca) and an analgesic (Temgesic, from Schering Plough, 0.05 mg/kg, s.c.). A rostrocaudal midline incision was made with a lancet to expose the dorsal skull surface. The “stereotaxic zero” was defined by the Bregma in accordance with Paxinos and Watson's atlas (1986). A hole was drilled in the skull with a drill and the meninges were pierced with a sterile needle to implant a CMA12 guide cannula which later received the dialysis probe.
Coordinates used for implanting guide cannula in prefrontal cortex from Bregma were anteroposterior 3.7 mm, mediolateral 0.8 mm, and dorsoventral −2 mm (top of the probe was at −5 mm). The guide cannula was fixed to the skull with two stainless steel screws (1.88 mm outside diameter) anchored. An application of dental cement was added. A plastic collar allowed each animal to be tethered to a Swivel assembly of the CMA 120 awake animal system. Following surgery, rats were kept in individual cages and allowed to recover for a minimum of 3-5 days before the experimentation. The rats were handled and put in plastic bowl for 10 min at least every day to habituate the animals to their new environment for the dialysis. An I.P. administration with saline was also performed every day.
Dialysis probes (CMA12/3 mm, membrane, 20 kD cut-off, Carnegie Medicine, Stockholm, Sweden), were carefully washed before inserting into the guide cannula. The wash was performed with the artificial cerebrospinal fluid (aCSF) medium (NaCl 147 mM, KCl 2.7 mM, CaCl2 1.2 mM, MgCl2 0.85 mM) at room temperature. The dialysis system was then equilibrated at 20° C. at a perfusion rate of 1 μl/min with a Carnegie pump (CMA100). All catheters (FEP tubing, internal volume of 1.2 μl/10 cm, and tubing adaptors) used for microdialysis were treated in the same conditions.
The probes duly prepared were inserted into the guide cannula and the CMA120 Swivel assembly secured to the animal using a plastic collar. Flow through the dialysis probe with aCSF was maintained at a rate of 1 μl/min during the whole experimentation. The first four fractions (corresponding to 2 hours) were discarded to avoid the effects of parenchymal disturbance and to ensure that an approximate steady-state level was reached. Fractions were then collected over a period of 8.5 h during which time the animals remained quiet. The dialysates were automatically collected with an autosampler (microfraction collector CMA 140, Carnegie Medicin) and stored at −80° C. until analysis. […] Perfusion was then maintained for 7 hours with aCSF. The dialysates (30 μl) were collected into 300 μl vials, transferred into dry ice and then kept frozen (−80° C.) until analysis. Frozen samples were shipped to a partner for analysis. At the end of the microdialysis study, a PBS with colored ink was perfused through the probe in order to visualize the dialyzed area.
Catecholamine assay: Concentrations of dopamine, DOPAC, HVA, 5-HIAA, 5-HT, and norepinephrin were determined for each sample by HPLC coupled with electrochemical detection. […]

[1] = SON-117 3 mg/kg IP, T1 h 30-T2 h
[2] = SON-117 3 mg/kg IP, T1 h-T1 h 30
[3] = SON-117 3 mg/kg IP, T2 h 30-T3 h
[4] = SON-117 3 mg/kg IP, T2 h-T2 h 30
[5] = SON-117 3 mg/kg IP, T3 h 30-T4 h
[6] = SON-117 3 mg/kg IP, T3 h-T3 h 30
[7] = SON-117 3 mg/kg IP, T4 h 30-T5 h
[8] = SON-117 3 mg/kg IP, T4 h-T4 h 30
[9] = SON-117 3 mg/kg IP, T5 h 30-T6 h
[10] = SON-117 3 mg/kg IP, T5 h-T5 h 30
[11] = SON-117 3 mg/kg IP, T6 h 30-T7 h
[12] = SON-117 3 mg/kg IP, T6 h-T6 h 30
[13] = SON-117 3 mg/kg IP, T-1 h 30-T-1 h (pre-administration)

Cc1nnc(-c2cc3c(OC[C@@H](O)CN4CCC(c5ccc(Cl)c(Cl)c5)CC4)cccc3o2)o1 [SON-117, (S)-1-(4-(3,4-dichlorophenyl)piperidino)-3-(2-(5-methyl-1,3,4-oxadiazol-2-yl)benzo(b)furan-4-yloxy)-2-propanol hydrochloride]
5-HT release (% of basal levels) measured in dialysates (SON-117 3 mg/kg IP, T30-T1 h): 204.22 % of basal levels and 162.26 % of basal levels and 105.16 % of basal levels and 123.52 % of basal levels and 121.85 % of basal levels and 66.82 % of basal levels and 90.61 % of basal levels and 103.58 % of basal levels | 5-HT release (% of basal levels) measured in dialysates, MEAN [1]: 172.47 % of basal levels | 5-HT release (% of basal levels) measured in dialysates [1]: 272.64 % of basal levels and 219.61 % of basal levels and 141.23 % of basal levels and 159.07 % of basal levels and 135.20 % of basal levels and 206.96 % of basal levels and 105.40 % of basal levels and 139.63 % of basal levels | 5-HT release (% of basal levels) measured in dialysates, MEAN [2]: 139.57 % of basal levels | 5-HT release (% of basal levels) measured in dialysates [2]: 205.53 % of basal levels and 81.50 % of basal levels and 112.86 % of basal levels and 110.90 % of basal levels and 126.82 % of basal levels and 127.44 % of basal levels and 170.45 % of basal levels and 181.06 % of basal levels | 5-HT release (% of basal levels) measured in dialysates, MEAN [3]: 134.29 % of basal levels | 5-HT release (% of basal levels) measured in dialysates [3]: 158.52 % of basal levels and 136.53 % of basal levels and 84.73 % of basal levels and 118.94 % of basal levels and 141.58 % of basal levels and 105.71 % of basal levels and 168.18 % of basal levels and 160.12 % of basal levels | 5-HT release (% of basal levels) measured in dialysates, MEAN [4]: 134.68 % of basal levels | 5-HT release (% of basal levels) measured in dialysates [4]: 125.58 % of basal levels and 163.25 % of basal levels and 90.55 % of basal levels and 143.00 % of basal levels and 145.36 % of basal levels and 158.14 % of basal levels and 116.88 % of basal levels | 5-HT release (% of basal levels) measured in dialysates, MEAN [5]: 122.79 % of basal levels | 5-HT release (% of basal levels) measured in dialysates [5]: 112.86 % of basal levels and 166.51 % of basal levels and 77.19 % of basal levels and 149.84 % of basal levels and 120.64 % of basal levels and 72.84 % of basal levels and 159.63 % of basal levels | 5-HT release (% of basal levels) measured in dialysates, MEAN [6]: 131.57 % of basal levels | 5-HT release (% of basal levels) measured in dialysates [6]: 178.23 % of basal levels and 97.99 % of basal levels and 78.86 % of basal levels and 198.09 % of basal levels and 131.52 % of basal levels and 75.85 % of basal levels and 160.43 % of basal levels | 5-HT release (% of basal levels) measured in dialysates, MEAN [7]: 263.96 % of basal levels | 5-HT release (% of basal levels) measured in dialysates [7]: 119.63 % of basal levels and 88.15 % of basal levels and 75.09 % of basal levels and 174.97 % of basal levels and 117.70 % of basal levels and 1179.79 % of basal levels and 92.36 % of basal levels | 5-HT release (% of basal levels) measured in dialysates, MEAN [8]: 118.76 % of basal levels | 5-HT release (% of basal levels) measured in dialysates [8]: 40.46 % of basal levels and 171.66 % of basal levels and 76.54 % of basal levels and 186.25 % of basal levels and 112.71 % of basal levels and 98.26 % of basal levels and 145.41 % of basal levels | 5-HT release (% of basal levels) measured in dialysates, MEAN [9]: 150.50 % of basal levels | 5-HT release (% of basal levels) measured in dialysates [9]: 121.53 % of basal levels and 146.21 % of basal levels and 238.25 % of basal levels and 159.31 % of basal levels and 72.12 % of basal levels and 135.51 % of basal levels and 180.58 % of basal levels | 5-HT release (% of basal levels) measured in dialysates, MEAN [10]: 176.38 % of basal levels | 5-HT release (% of basal levels) measured in dialysates [10]: 118.62 % of basal levels and 189.63 % of basal levels and 161.82 % of basal levels and 191.70 % of basal levels and 132.84 % of basal levels and 100.25 % of basal levels and 410.45 % of basal levels and 105.75 % of basal levels | 5-HT release (% of basal levels) measured in dialysates, MEAN [11]: 172.13 % of basal levels | 5-HT release (% of basal levels) measured in dialysates [11]: 146.14 % of basal levels and 156.41 % of basal levels and 213.64 % of basal levels and 136.73 % of basal levels and 298.30 % of basal levels and 107.87 % of basal levels and 145.86 % of basal levels | 5-HT release (% of basal levels) measured in dialysates, MEAN [12]: 156.40 % of basal levels | 5-HT release (% of basal levels) measured in dialysates [12]: 135.63 % of basal levels and 218.45 % of basal levels and 123.22 % of basal levels and 169.93 % of basal levels and 132.54 % of basal levels and 87.76 % of basal levels and 130.92 % of basal levels and 252.75 % of basal levels | 5-HT release (% of basal levels) measured in dialysates, MEAN (SON-117 3 mg/kg IP, T-30 min-T0 (pre-administration)): 97.07 % of basal levels | 5-HT release (% of basal levels) measured in dialysates, MEAN [13]: 101.16 % of basal levels | 5-HT release (% of basal levels) measured in dialysates [13]: 104.98 % of basal levels and 84.68 % of basal levels and 89.82 % of basal levels | 5-HT release (% of basal levels) measured in dialysates, MEAN (SON-117 3 mg/kg IP, T-1 h-T-30 min (pre-administration)): 102.92 % of basal levels | 5-HT concentrations in prefrontal cortex, significant increase, max. (SON-117 3 mg/kg IP, from 2 h to 3 h): 175% | 5-HT concentrations in prefrontal cortex, significant increase (SON-117 3 mg/kg IP, from 5.5 h to 7 h): 272% | 5-HT release, increase still present (SON-117 3 mg/kg, 7 h after administration): 183% | levels of 5-HT compared to the citalopram treated group (significant) (SON-117 3 mg/kg, at 1 h): slightly lower | 5-HT release, maximum increase observed (SON-117 3 mg/kg, at 5 h): 272% | levels of 5-HT compared to the citalopram treated group (significant) (SON-117 3 mg/kg, at 5 h and 7 h): higher | 5-HT (% of respective basal) MEAN (T0-T30 min): 128.89 % of respective basal | 5-HT (% of respective basal) MEAN (T30-T1 h): 123.42 % of respective basal | 5-HT (% of respective basal) MEAN (T1 h 30-T2 h): 167.52 % of respective basal | 5-HT (% of respective basal) MEAN (T1 h-T1 h 30): 176.03 % of respective basal | 5-HT (% of respective basal) MEAN (T2 h 30-T3 h): 215.80 % of respective basal | 5-HT (% of respective basal) MEAN (T2 h-T2 h 30): 370.70 % of respective basal | 5-HT (% of respective basal) MEAN (T3 h 30-T4 h): 151.83 % of respective basal | 5-HT (% of respective basal) MEAN (T3 h-T3 h 30): 156.53 % of respective basal | 5-HT (% of respective basal) MEAN (T4 h 30-T5 h): 296.70 % of respective basal | 5-HT (% of respective basal) MEAN (T4 h-T4 h 30): 350.16 % of respective basal | 5-HT (% of respective basal) MEAN (T5 h 30-T6 h): 250.07 % of respective basal | 5-HT (% of respective basal) MEAN (T5 h-T5 h 30): 310.25 % of respective basal | 5-HT (% of respective basal) MEAN (T6 h 30-T7 h): 253.10 % of respective basal | 5-HT (% of respective basal) MEAN (T6 h-T6 h 30): 254.62 % of respective basal | 5-HT (% of respective basal) MEAN (T-30 min-T0 (before administration)): 112.68 % of respective basal | 5-HT (% of respective basal) MEAN (T-1 h 30-T-1 h (before administration)): 80.63 % of respective basal | 5-HT (% of respective basal) MEAN (T-1 h-T-30 min (before administration)): 106.27 % of respective basal
